Assay results taken from patent US20250230193A1, “CYCLIC COMPOUND HAVING SELECTIVE KRAS INHIBITORY EFFECT ON HRAS AND NRAS” (CHUGAI SEIYAKU KABUSHIKI KAISHA, priority 2022, published 2025).

Columns and labels:
[1] = target: GDP-bound HRAS wild-type protein (Homo sapiens, UniProt P01112); experiment: Binding to HRAS by surface plasmon resonance (SPR), Single Cycle Kinetics; conditions: KD ratio, GDP-bound HRAS wild-type vs GDP-bound KRAS wild-type, SPR
[2] = target: GDP-bound NRAS wild-type protein (Homo sapiens, UniProt P01111); experiment: Binding to NRAS by surface plasmon resonance (SPR), Single Cycle Kinetics; conditions: KD ratio, GDP-bound NRAS wild-type vs GDP-bound KRAS wild-type, SPR
Chain of GDP-bound NRAS wild-type protein (P01111 whole entry): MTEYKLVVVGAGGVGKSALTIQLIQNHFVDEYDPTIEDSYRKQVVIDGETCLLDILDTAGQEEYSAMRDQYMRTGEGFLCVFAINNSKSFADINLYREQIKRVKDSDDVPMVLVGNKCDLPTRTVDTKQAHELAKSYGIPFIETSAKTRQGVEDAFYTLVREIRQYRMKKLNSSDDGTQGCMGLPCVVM

Chain of GDP-bound HRAS wild-type protein (P01112 whole entry): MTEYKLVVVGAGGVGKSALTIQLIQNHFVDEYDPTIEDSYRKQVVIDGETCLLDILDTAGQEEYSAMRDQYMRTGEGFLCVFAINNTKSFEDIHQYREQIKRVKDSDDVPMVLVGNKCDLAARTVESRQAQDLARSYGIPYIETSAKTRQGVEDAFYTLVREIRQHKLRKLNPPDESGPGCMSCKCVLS

SMILES: CCO[C@@H]1C[C@H]2C(=O)NC3(CC(C)(C)C3)C(=O)N(C)[C@@H](C3CCCC3)C(=O)N(CC)[C@H](C(=O)N(C)C)CC(=O)N(C)[C@@H](CC(C)C)C(=O)N[C@@H]([C@@H](C)CC)C(=O)NCC(=O)N(C)[C@H]3C/C=C\CCN(C3=O)[C@@H](Cc3ccc(C(F)(F)F)cc3)C(=O)N(C)CC(=O)N[C@@H](CCc3cc(F)c(C(F)(F)F)c(F)c3)C(=O)N2C1 [PP1773]
- HRAS/KRAS (ratio of KD value for HRAS to KD value for KRAS) [1]: A (a compound having 10 or more and less than 20 is denoted as A)
- NRAS/KRAS (ratio of KD value for NRAS to KD value for KRAS) [2]: A (a compound having 10 or more and less than 20 is denoted as A)

SMILES: CC[C@H](C)[C@@H]1NC(=O)[C@H](CC(C)C)N(C)C(=O)C[C@@H](C(=O)N(C)C)N(C)C(=O)[C@H](C2CCCC2)N(C)C(=O)C2(CC(C)(C)C2)NC(=O)CN(C)C(=O)[C@H](CCc2cc(F)c(C(F)(F)F)c(F)c2)NC(=O)CN(C)C(=O)[C@H](Cc2ccc(C(F)(F)F)cc2)N2CC/C=C\C[C@@H](C2=O)N(C)C(=O)CN(C)C1=O [PP1776]
- HRAS/KRAS (ratio of KD value for HRAS to KD value for KRAS) [1]: A (a compound having 10 or more and less than 20 is denoted as A)
- NRAS/KRAS (ratio of KD value for NRAS to KD value for KRAS) [2]: A (a compound having 10 or more and less than 20 is denoted as A)

SMILES: CCC[C@H]1C(=O)N[C@@H]([C@@H](C)CC)C(=O)N(C)CC(=O)N(C)[C@H]2C/C=C\CCN(C2=O)[C@@H](Cc2ccc(C(F)(F)F)cc2)C(=O)N(C)CC(=O)N[C@@H](CCc2cc(F)c(C(F)(F)F)c(F)c2)C(=O)N(CC)CC(=O)NC2(CC(C)(C)C2)C(=O)N(C)[C@@H](C2CCCC2)C(=O)N(C)[C@H](C(=O)N(C)C)CC(=O)N1C [PP1777]
- HRAS/KRAS (ratio of KD value for HRAS to KD value for KRAS) [1]: B (a compound having 3 or more and less than 10 is denoted as B)
- NRAS/KRAS (ratio of KD value for NRAS to KD value for KRAS) [2]: A (a compound having 10 or more and less than 20 is denoted as A)

SMILES: CCO[C@@H]1C[C@H]2C(=O)N(C)C3(CCC3)C(=O)N(C)[C@@H](C3CCCC3)C(=O)N(C)[C@H](C(=O)N(C)C)CC(=O)N(C)[C@@H](CC)C(=O)N[C@@H]([C@@H](C)CC)C(=O)N(C)CC(=O)N(C)[C@H]3C/C=C\CCN(C3=O)[C@@H](Cc3ccc(C(F)(F)F)cc3)C(=O)N(C)CC(=O)N[C@@H](CCc3cc(F)c(C(F)(F)F)c(F)c3)C(=O)N2C1 [PP1779]
- HRAS/KRAS (ratio of KD value for HRAS to KD value for KRAS) [1]: B (a compound having 3 or more and less than 10 is denoted as B)
- NRAS/KRAS (ratio of KD value for NRAS to KD value for KRAS) [2]: A (a compound having 10 or more and less than 20 is denoted as A)

SMILES: CC[C@H](C)[C@@H]1NC(=O)[C@H](CC)N(C)C(=O)C[C@@H](C(=O)N(C)C)N(C)C(=O)[C@H](C2CCCC2)N(C)C(=O)C2(CCC2)N(C)C(=O)[C@@H]2CCCN2C(=O)[C@H](CCc2cc(F)c(C(F)(F)F)c(F)c2)NC(=O)CN(C)C(=O)[C@H](Cc2ccc(C(F)(F)F)cc2)N2CC/C=C\C[C@@H](C2=O)N(C)C(=O)CN(C)C1=O [PP1780]
- HRAS/KRAS (ratio of KD value for HRAS to KD value for KRAS) [1]: A (a compound having 10 or more and less than 20 is denoted as A)
- NRAS/KRAS (ratio of KD value for NRAS to KD value for KRAS) [2]: A (a compound having 10 or more and less than 20 is denoted as A)

SMILES: CCO[C@@H]1C[C@H]2C(=O)N(C)C3(CCC3)C(=O)N(C)[C@@H](C3CCCC3)C(=O)N(C)[C@H](C(=O)N(C)C)CC(=O)N(C)[C@@H](CC)C(=O)N[C@@H]([C@@H](C)CC)C(=O)N(C)CC(=O)N(C)[C@H]3C/C=C\CCN(C3=O)[C@@H](Cc3ccc(C)cc3)C(=O)N(C)CC(=O)N[C@@H](CCc3cc(F)c(C(F)(F)F)c(F)c3)C(=O)N2C1 [PP1781]
- HRAS/KRAS (ratio of KD value for HRAS to KD value for KRAS) [1]: B (a compound having 3 or more and less than 10 is denoted as B)
- NRAS/KRAS (ratio of KD value for NRAS to KD value for KRAS) [2]: A (a compound having 10 or more and less than 20 is denoted as A)

SMILES: CC[C@H](C)[C@@H]1NC(=O)[C@H](CC)N(C)C(=O)C[C@@H](C(=O)N(C)C)N(C)C(=O)[C@H](C2CCCC2)N(C)C(=O)C2(CCC2)N(C)C(=O)[C@@H]2CCCN2C(=O)[C@H](CCc2cc(F)c(C(F)(F)F)c(F)c2)NC(=O)CN(C)C(=O)[C@H](Cc2ccc(C)cc2)N2CC/C=C\C[C@@H](C2=O)N(C)C(=O)CN(C)C1=O [PP1782]
- HRAS/KRAS (ratio of KD value for HRAS to KD value for KRAS) [1]: B (a compound having 3 or more and less than 10 is denoted as B)
- NRAS/KRAS (ratio of KD value for NRAS to KD value for KRAS) [2]: A (a compound having 10 or more and less than 20 is denoted as A)

SMILES: CCO[C@@H]1C[C@H]2C(=O)N(C)C3(CCC3)C(=O)N(C)[C@@H](C3CCCC3)C(=O)N(C)[C@H](C(=O)N(C)C)CC(=O)N(C)[C@@H](C3CC3)C(=O)N[C@@H]([C@@H](C)CC)C(=O)N(C)CC(=O)N(C)[C@H]3C/C=C\CCN(C3=O)[C@@H](Cc3ccc(C)cc3)C(=O)N(C)CC(=O)N[C@@H](CCc3cc(F)c(C(F)(F)F)c(F)c3)C(=O)N2C1 [PP1783]
- HRAS/KRAS (ratio of KD value for HRAS to KD value for KRAS) [1]: B (a compound having 3 or more and less than 10 is denoted as B)
- NRAS/KRAS (ratio of KD value for NRAS to KD value for KRAS) [2]: A (a compound having 10 or more and less than 20 is denoted as A)

SMILES: CC[C@H](C)[C@@H]1NC(=O)[C@H](C2CC2)N(C)C(=O)C[C@@H](C(=O)N(C)C)N(C)C(=O)[C@H](C2CCCC2)N(C)C(=O)C2(CCC2)N(C)C(=O)[C@@H]2CCCN2C(=O)[C@H](CCc2cc(F)c(C(F)(F)F)c(F)c2)NC(=O)CN(C)C(=O)[C@H](Cc2ccc(C)cc2)N2CC/C=C\C[C@@H](C2=O)N(C)C(=O)CN(C)C1=O [PP1784]
- HRAS/KRAS (ratio of KD value for HRAS to KD value for KRAS) [1]: B (a compound having 3 or more and less than 10 is denoted as B)
- NRAS/KRAS (ratio of KD value for NRAS to KD value for KRAS) [2]: A (a compound having 10 or more and less than 20 is denoted as A)

SMILES: CCO[C@@H]1C[C@H]2C(=O)N(C)C3(CCC3)C(=O)N(C)[C@@H](C3CCCC3)C(=O)N(C)[C@H](C(=O)N(C)C)CC(=O)N(C)[C@@H](CC)C(=O)N[C@@H]([C@@H](C)CC)C(=O)N3CCC[C@H]3C(=O)N(C)[C@H]3C/C=C\CCN(C3=O)[C@@H](Cc3ccc(C)cc3)C(=O)N(C)CC(=O)N[C@@H](CCc3cc(F)c(C(F)(F)F)c(F)c3)C(=O)N2C1 [PP1785]
- HRAS/KRAS (ratio of KD value for HRAS to KD value for KRAS) [1]: A (a compound having 10 or more and less than 20 is denoted as A)
- NRAS/KRAS (ratio of KD value for NRAS to KD value for KRAS) [2]: A (a compound having 10 or more and less than 20 is denoted as A)

SMILES: CC[C@H](C)[C@@H]1NC(=O)[C@H](CC)N(C)C(=O)C[C@@H](C(=O)N(C)C)N(C)C(=O)[C@H](C2CCCC2)N(C)C(=O)C2(CCC2)N(C)C(=O)[C@@H]2CCCN2C(=O)[C@H](CCc2cc(F)c(C(F)(F)F)c(F)c2)NC(=O)CN(C)C(=O)[C@H](Cc2ccc(C)cc2)N2CC/C=C\C[C@@H](C2=O)N(C)C(=O)[C@@H]2CCCN2C1=O [PP1786]
- HRAS/KRAS (ratio of KD value for HRAS to KD value for KRAS) [1]: B (a compound having 3 or more and less than 10 is denoted as B)
- NRAS/KRAS (ratio of KD value for NRAS to KD value for KRAS) [2]: A (a compound having 10 or more and less than 20 is denoted as A)

SMILES: CC[C@H](C)[C@@H]1NC(=O)[C@H](CC)N(C)C(=O)C[C@@H](C(=O)N(C)C)N(C)C(=O)[C@H](C2CCCC2)N(C)C(=O)C2(CCC2)N(C)C(=O)[C@@H]2C[C@@H](C)CN2C(=O)[C@H](CCc2cc(F)c(C(F)(F)F)c(F)c2)NC(=O)CN(C)C(=O)[C@H](Cc2ccc(C)cc2)N2CC/C=C\C[C@@H](C2=O)N(C)C(=O)CN(C)C1=O [PP1787]
- HRAS/KRAS (ratio of KD value for HRAS to KD value for KRAS) [1]: B (a compound having 3 or more and less than 10 is denoted as B)
- NRAS/KRAS (ratio of KD value for NRAS to KD value for KRAS) [2]: A (a compound having 10 or more and less than 20 is denoted as A)

SMILES: CC[C@H](C)[C@@H]1NC(=O)[C@H](C2CC2)N(C)C(=O)C[C@@H](C(=O)N(C)C)N(C)C(=O)[C@H](C2CCCC2)N(C)C(=O)C2(CCC2)N(C)C(=O)[C@@H]2C[C@@H](C)CN2C(=O)[C@H](CCc2cc(F)c(C(F)(F)F)c(F)c2)NC(=O)CN(C)C(=O)[C@H](Cc2ccc(C)cc2)N2CC/C=C\C[C@@H](C2=O)N(C)C(=O)CN(C)C1=O [PP1788]
- HRAS/KRAS (ratio of KD value for HRAS to KD value for KRAS) [1]: B (a compound having 3 or more and less than 10 is denoted as B)
- NRAS/KRAS (ratio of KD value for NRAS to KD value for KRAS) [2]: B (a compound having 3 or more and less than 10 is denoted as B)

SMILES: CC[C@H](C)[C@@H]1NC(=O)[C@H](CC)N(C)C(=O)C[C@@H](C(=O)N(C)C)N(C)C(=O)[C@H](C2CCCC2)N(C)C(=O)C2(CCC2)N(C)C(=O)[C@@H]2C[C@@H](C)CN2C(=O)[C@H](CCc2cc(F)c(C(F)(F)F)c(F)c2)NC(=O)CN(C)C(=O)[C@H](Cc2ccc(C)cc2)N2CC/C=C\C[C@@H](C2=O)N(C)C(=O)[C@@H]2CCCN2C1=O [PP1789]
- HRAS/KRAS (ratio of KD value for HRAS to KD value for KRAS) [1]: A (a compound having 10 or more and less than 20 is denoted as A)
- NRAS/KRAS (ratio of KD value for NRAS to KD value for KRAS) [2]: A (a compound having 10 or more and less than 20 is denoted as A)

SMILES: CCO[C@@H]1C[C@H]2C(=O)N(C)C3(CCC3)C(=O)N(C)[C@@H](C3CCCC3)C(=O)N(C)[C@H](C(=O)N(C)C)CC(=O)N(C)[C@@H](CC(C)C)C(=O)N[C@@H]([C@@H](C)CC)C(=O)N(C)CC(=O)N(C)[C@H]3C/C=C\CCN(C3=O)[C@@H](Cc3ccc(C)cc3)C(=O)N(C)CC(=O)N[C@@H](CCc3cc(F)c(C(F)(F)F)c(F)c3)C(=O)N2C1 [PP1790]
- HRAS/KRAS (ratio of KD value for HRAS to KD value for KRAS) [1]: B (a compound having 3 or more and less than 10 is denoted as B)
- NRAS/KRAS (ratio of KD value for NRAS to KD value for KRAS) [2]: A (a compound having 10 or more and less than 20 is denoted as A)

SMILES: CC[C@H](C)[C@@H]1NC(=O)[C@H](CC(C)C)N(C)C(=O)C[C@@H](C(=O)N(C)C)N(C)C(=O)[C@H](C2CCCC2)N(C)C(=O)C2(CCC2)N(C)C(=O)[C@@H]2CCCN2C(=O)[C@H](CCc2cc(F)c(C(F)(F)F)c(F)c2)NC(=O)CN(C)C(=O)[C@H](Cc2ccc(C)cc2)N2CC/C=C\C[C@@H](C2=O)N(C)C(=O)CN(C)C1=O [PP1791]
- HRAS/KRAS (ratio of KD value for HRAS to KD value for KRAS) [1]: A (a compound having 10 or more and less than 20 is denoted as A)
- NRAS/KRAS (ratio of KD value for NRAS to KD value for KRAS) [2]: A (a compound having 10 or more and less than 20 is denoted as A)

SMILES: CCC[C@H]1C(=O)N[C@@H]([C@@H](C)CC)C(=O)N(C)CC(=O)N(C)[C@H]2C/C=C\CCN(C2=O)[C@@H](Cc2ccc(C)cc2)C(=O)N(C)CC(=O)N[C@@H](CCc2cc(F)c(C(F)(F)F)c(F)c2)C(=O)N2C[C@H](OCC)C[C@H]2C(=O)N(C)C2(CCC2)C(=O)N(C)[C@@H](C2CCCC2)C(=O)N(C)[C@H](C(=O)N(C)C)CC(=O)N1C [PP1793]
- HRAS/KRAS (ratio of KD value for HRAS to KD value for KRAS) [1]: B (a compound having 3 or more and less than 10 is denoted as B)
- NRAS/KRAS (ratio of KD value for NRAS to KD value for KRAS) [2]: A (a compound having 10 or more and less than 20 is denoted as A)
